As a reminder, the EC50 is the concentration giving half of the maximal effect.

For test [1], the target named is T1, Estrogen receptor (Homo sapiens) (UniProt P03372).
T1 sequence (whole entry): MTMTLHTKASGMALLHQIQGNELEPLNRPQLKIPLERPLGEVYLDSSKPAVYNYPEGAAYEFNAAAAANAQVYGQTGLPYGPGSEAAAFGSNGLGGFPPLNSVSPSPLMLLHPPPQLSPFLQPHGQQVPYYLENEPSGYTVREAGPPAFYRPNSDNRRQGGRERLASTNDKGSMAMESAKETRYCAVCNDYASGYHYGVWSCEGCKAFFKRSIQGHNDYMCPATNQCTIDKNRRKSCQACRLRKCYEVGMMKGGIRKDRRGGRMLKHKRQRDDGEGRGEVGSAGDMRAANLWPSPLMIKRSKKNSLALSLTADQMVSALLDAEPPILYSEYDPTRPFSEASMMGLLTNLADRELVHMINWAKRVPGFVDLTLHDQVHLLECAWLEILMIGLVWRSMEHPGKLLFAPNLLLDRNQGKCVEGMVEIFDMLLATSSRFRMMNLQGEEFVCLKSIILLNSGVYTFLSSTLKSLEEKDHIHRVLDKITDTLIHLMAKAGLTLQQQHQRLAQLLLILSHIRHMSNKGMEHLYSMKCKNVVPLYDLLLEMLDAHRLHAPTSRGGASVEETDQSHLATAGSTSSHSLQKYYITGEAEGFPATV
As to the kind of experiment: Percent change in 17-beta-estradiol mediated transcriptional activation in CHO cells expressing human estrogen receptor alpha at 10e-6 M. Format: functional, cell-based.

A further test addresses T2, Estrogen receptor (Homo sapiens, UniProt P03372).
T2 sequence (P03372 whole entry): T1 sequence (whole entry)
As to the kind of experiment: Transcriptional agonist activity in Chinese hamster ovary cells expressing human Estrogen Receptor alpha. The format is functional, cell-based.

The target of test [2] is T1, Estrogen receptor (Homo sapiens). As to conditions: CHO.
Test [3] shares this target. As to the kind of experiment: Relative binding affinity for human estrogen receptor alpha expressed in CHO cells compared to Diethylstilbestrol Methyl Ether. The format is cell-based.
Test [4] shares this target. As to the kind of experiment: Relative Binding Affinity for human estrogen receptor alpha expressed in CHO cells compared to Diethylstilbestrol Dimethyl Ether. The format is cell-based.

In turn, `COc1ccc(C2Oc3ccc(O)cc3C(=O)C2C)cc1` (configuration not stated) returned an HTS data in test [1] of 67. At Estrogen receptor, this molecule displayed an EC50 above 10000 nM.

Regarding `COc1ccc2c(c1)CC[C@@H]1[C@@H]2CC[C@]2(C)[C@@H](O)CC[C@@H]12`, the HTS data in test [2] is 76.

As to `COc1ccc2c(c1)CC[C@@H]1[C@@H]2CC[C@]2(C)[C@@H](OC)CC[C@@H]12`, in test [2], the HTS data was 0.

For the molecule `Oc1ccc(-c2cccc(-c3ccc(O)cc3)c2)cc1`, the 50% effective concentration (EC50) on Estrogen receptor was determined as 800 nM. This counts as sub-micromolar.

On to `COc1ccc(-c2cccc(-c3ccc(OC)cc3)c2)cc1`, for which the HTS data in test [1] was found to be 7. The EC50 on Estrogen receptor was above 10000 nM.

`CC/C(=C(/CC)c1ccc(OC)cc1)c1ccc(O)cc1` displayed an RBA data in test [3] of 1.31.

Consider `Oc1ccc(-c2cc(-c3ccc(O)cc3)cc(-c3ccc(O)cc3)c2)cc1`, for which the response at Estrogen receptor was half-maximal at 80 nM (EC50).

`Oc1ccc(-c2ccc(-c3ccc(O)cc3)cc2)cc1` yielded a concentration for a half-maximal effect (EC50) at Estrogen receptor of 1200 nM.

In turn, `CC/C(=C(/CC)c1ccc(OC)cc1)c1ccc(OC)cc1` gave an RBA data in test [4] of -1.25.

Consider `CC1C(=O)c2cc(O)ccc2OC1c1ccc(O)cc1` (configuration not stated), for which a half-maximal effect at Estrogen receptor (EC50) was put at 4 nM.
